From ChEMBL document CHEMBL1201862, “PubChem BioAssay data set” (2004)
Calls of active or inactive are those of the source.

Experiments:
[1] = P. falciparum Dd2 growth inhibitors, dose response, SYBR Green, cherry-picked samples (AID 1159567); format: functional, cell-based
[2] = HepG2 cell cytotoxicity, dose response, cytotoxicity control, cherry-picked samples (AID 1159577); format: functional, cell-based
[3] = molecular target: G-protein coupled receptor 183 (Homo sapiens, UniProt P32249); assay: SAR confirmation of small molecule antagonists of the EBI2 receptor via a luminescent beta-arrestin assa.; format: functional
[4] = molecular target: RNA-editing ligase 1, mitochondrial (Trypanosoma brucei brucei, UniProt P86926); assay: TbREL1 ligase inhibitors, dose response, biochemical, fluorescence, Trypanosoma brucei (AID 1117295); format: functional
RNA-editing ligase 1, mitochondrial, sequence (P86926 whole entry): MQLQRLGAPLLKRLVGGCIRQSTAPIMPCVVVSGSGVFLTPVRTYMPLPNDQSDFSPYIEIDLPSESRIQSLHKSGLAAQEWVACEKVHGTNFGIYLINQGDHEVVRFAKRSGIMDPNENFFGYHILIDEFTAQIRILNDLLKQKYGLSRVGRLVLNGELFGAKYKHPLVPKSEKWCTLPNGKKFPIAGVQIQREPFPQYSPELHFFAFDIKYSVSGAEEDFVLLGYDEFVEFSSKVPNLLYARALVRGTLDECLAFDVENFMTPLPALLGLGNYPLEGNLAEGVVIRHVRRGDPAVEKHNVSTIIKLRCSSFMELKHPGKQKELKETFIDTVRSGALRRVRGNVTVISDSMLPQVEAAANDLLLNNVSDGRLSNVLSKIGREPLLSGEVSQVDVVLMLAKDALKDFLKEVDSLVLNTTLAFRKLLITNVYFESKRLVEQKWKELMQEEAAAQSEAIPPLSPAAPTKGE

G-protein coupled receptor 183, sequence (P32249 whole entry): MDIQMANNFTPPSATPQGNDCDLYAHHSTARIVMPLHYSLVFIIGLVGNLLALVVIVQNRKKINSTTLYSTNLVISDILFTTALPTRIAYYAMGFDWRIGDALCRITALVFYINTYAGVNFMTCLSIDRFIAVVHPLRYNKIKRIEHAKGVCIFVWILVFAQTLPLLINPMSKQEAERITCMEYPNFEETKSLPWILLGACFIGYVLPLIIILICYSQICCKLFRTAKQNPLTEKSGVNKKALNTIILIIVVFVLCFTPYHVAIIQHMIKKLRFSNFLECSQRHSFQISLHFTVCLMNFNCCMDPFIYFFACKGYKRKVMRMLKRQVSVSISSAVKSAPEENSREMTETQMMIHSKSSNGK

IC50 [3]	SMILES	AC50 [1]	AC50 [2]	IC50 [4]
	CO[C@@H]1CN(C)C(=O)c2ccc(NC(=O)Nc3cccc(Cl)c3)cc2OC[C@@H](C)NC[C@H]1C	5.07 µM (active)	30.3 µM (active)	
0.0064 µM (active)	Cc1cc(C)cc(CN2CCN(C(=O)/C=C/c3ccc(Br)cc3)CC2)c1			
	N#C[C@H]1[C@@H](c2ccc(C#CC3CCCC3)cc2)[C@@H](CO)N1S(=O)(=O)c1ccccc1	3.62 µM (active)	24.8 µM (active)	
> 1 µM (inactive)	O=C(c1ccc(Br)cc1)N1CCN(C(=O)c2ccccc2Cl)CC1			
	Cc1cc(O)c2c(c1)C(=O)[C@@]13C(=C(O)[C@H]4C(O)[C@@H]1[C@H]1C(O)[C@@H]3C(O)=C3C(=O)c5c(O)cc(C)cc5C(=O)[C@@]314)C2=O (some centres not stated)			4.1 µM (active)
